The target of the experiment is recombinant human SYK (GST-hSYK fusion protein) (Homo sapiens, UniProt P43405). The experiment can be described thus: biochemical.
[1] abbreviates: rhSYK Activity (IC50), recombinant human GST-SYK 5 pM, ATP 25 μM, biotinylated substrate peptide 250 nM, HTRF, 10-dose titration.

From the text: Homogeneous Time-Resolved Fluorescence (HTRF) Assay for the Recombinant Human SYK Enzyme:

A word on the IC50: it is the concentration at which inhibition is half-maximal. As to `Cc1cc(Nc2nccc(C)n2)cc(-c2cnc([C@@]3(O)CC[C@H](C(=O)O)C(C)(C)C3)s2)c1`, the half-maximal inhibitory concentration (IC50) (Syk IC50, HTRF, recombinant human GST-SYK) worked out at 1 nM.

On to `Cc1cc(Nc2nccc(OC3CCC(O)CC3)n2)cc(-c2cnc(C(C)(O)C(F)(F)F)s2)c1` (mixture of isomers) [Example 96, 4-{[2-({3-methyl-5-[2-(1,1,1-trifluoro-2-hydroxypropan-2-yl)-1,3-thiazol-5-yl]phenyl}amino)-pyrimidin-4-yl]oxy}cyclohexanol], for which, under setting [1], the half-maximal inhibitory concentration (IC50) was below 100 nM.

Consider `Cc1cc(Nc2nccc(C(F)(F)F)n2)cc(-c2cnc(C3(O)CCN(C(=O)C(O)C(F)(F)F)CC3)s2)c1` (racemic) [Example 54A-60], for which the IC50 (RHSYK Activity, Table 54A) was below 100 nM.

On to `Cc1cc(Nc2nccc(C(F)(F)F)n2)cc(-c2cnc([C@@H](O)[C@H](O)c3ccc(C(=O)O)cc3)s2)c1` (relative stereo) [Example 146, 4-{(Cis)-1,2-dihydroxy-2-[5-(3-methyl-5-{[4-(trifluoromethyl)pyrimidin-2-yl]amino}phenyl)-1,3-thiazol-2-yl]ethyl}benzoic acid], for which the IC50 under setting [1] was below 100 nM.

On to `Cc1cc(Nc2nccc(C(F)(F)F)n2)cc(-c2cnc(C3(O)CCCN(C(=O)OC(C)(C)C)CC3)s2)c1` (single isomer, unassigned) [45-1], for which the 50% inhibitory concentration (IC50) (rhSYK Activity, Table 45) is 100 to 1000 nM.

With `Cc1cc(Nc2nccc(C(F)(F)F)n2)cc(-c2cnc(C3CCC(C(N)=O)C(C)(C)C3)s2)c1` (single isomer, unassigned) [154(a), 2,2-Dim ethyl-4-[5-(3-methyl-5-{[4-(trifluoromethyl)pyrimidin-2-yl]amino}phenyl)-1,3-thiazol-2-yl]cyclohexanecarboxamide], under setting [1], the IC50 was below 100 nM.

Turning to `Cc1cc(Nc2nccc(C(F)(F)F)n2)cc(-c2cnc(C3(O)CCNC(=O)CC3O)s2)c1` (single isomer, unassigned) [161(B), [cis]-4,5-dihydroxy-5-[5-(3-methyl-5-{[4-(trifluoromethyl)pyrimidin-2-yl]amino}phenyl)-1,3-thiazol-2-yl]azepan-2-one], under setting [1], the IC50 is below 100 nM.

As for `Cc1cc(Nc2nccc(C(F)(F)F)n2)cc(-c2cnc(C3(O)CCC(=O)NCC3O)s2)c1` (single isomer, unassigned) [161(C), [cis]5,6-dihydroxy-5-[5-(3-methyl-5-{[4-(trifluoromethyl)pyrimidin-2-yl]amino}phenyl)-1,3-thiazol-2-yl]azepan-2-one], the half-maximal inhibitory concentration (IC50) under setting [1] is below 100 nM.

In the case of `Cc1cc(Nc2nccc(C(C)C)n2)cc(-c2cnc(C3(O)CCNC(=O)CC3)s2)c1` (single isomer, unassigned) [Example 10A-2], where the note is “rhSYK Activity, Table 10, Formula A”, the IC50 is below 100 nM.

For `Cc1cc(Nc2ncc(Cl)cn2)cc(-c2cnc(C3(O)CCC(C(=O)O)C(C)(C)C3)s2)c1` (single isomer, unassigned) [Example 33A-43], the IC50 (rhSYK Activity, Table 33-A) is below 100 nM.

Regarding `Cc1cc(Nc2ncc(F)cn2)cc(-c2cnc(C3(O)CCC(C(=O)O)C(C)(C)C3)s2)c1` (single isomer, unassigned) [Example 33A-46], the half-maximal inhibitory concentration (IC50) (rhSYK Activity, Table 33-A) lay in the range of 100 to 1000 nM.

In the case of `Cc1cc(Nc2ncc(F)cn2)cc(-c2cnc(C3(O)CCC(C(=O)O)C(C)(C)C3)s2)c1` (single isomer, unassigned) [Example 33A-47], the IC50 (rhSYK Activity, Table 33-A) is below 100 nM.

As to `COC(=O)C1CCC(O)(c2ncc(-c3cc(CO)cc(Nc4nccc(C(F)(F)F)n4)c3)s2)CC1(C)C` (single isomer, unassigned) [Example 33A-50], the IC50 (rhSYK Activity, Table 33-A) is below 100 nM.

As to `CC1(C)CC(O)(c2ncc(-c3cc(CO)cc(Nc4nccc(C(F)(F)F)n4)c3)s2)CCC1C(=O)O` (single isomer, unassigned) [Example 33A-51], under “rhSYK Activity, Table 33-A”, the half-inhibitory concentration (IC50) was below 100 nM.

Take `CC1(C)CC(O)(c2ncc(-c3cc(Nc4nccc(C(F)(F)F)n4)cc(C(F)F)c3)s2)CCC1C(=O)O` (single isomer, unassigned) [Example 33A-57]: the IC50 (rhSYK Activity, Table 33-A) is below 100 nM.

Consider `CC1(C)CC(O)(c2ncc(-c3cc(F)cc(Nc4nccc(C(F)(F)F)n4)c3)s2)CCC1C(=O)O` (single isomer, unassigned) [Example 33A-63], for which the half-inhibitory concentration (IC50) (rhSYK Activity, Table 33-A) is below 100 nM.

For `CC1(C)CC(O)(c2ncc(-c3cccc(Nc4nccc(C(F)(F)F)n4)c3)s2)CCC1C(=O)O` (single isomer, unassigned) [Example 33A-66], the concentration for half-maximal inhibition (IC50) (rhSYK Activity, Table 33-A) was below 100 nM.

With `COc1ccnc(Nc2cc(C)cc(-c3cnc(C4(O)CCC(C(=O)O)C(C)(C)C4)s3)c2)n1` (single isomer, unassigned) [Example 33A-72], the 50% inhibitory concentration (IC50) (rhSYK Activity, Table 33-A) was below 100 nM.

Consider `Cc1cc(Nc2nccc(C(F)(F)F)n2)cc(-c2cnc(C3(O)CCC(C(=O)O)C(C)(C)C3C)s2)c1` (single isomer, unassigned) [Example 33A-77], for which the IC50 (rhSYK Activity, Table 33-A) was below 100 nM.

On to `Cc1cc(Nc2nccc(C(F)(F)F)n2)cc(-c2cnc(C3(O)CCC(CC(=O)O)C3)s2)c1` (single isomer, unassigned) [Example 33B-25], for which the IC50 (rhSYK Activity, Table 33B) was below 100 nM.

Consider `Cc1cc(Nc2nccc(C(F)(F)F)n2)cc(-c2cnc(C(C)(O)CCC(C)(C)C(=O)O)s2)c1` (single isomer, unassigned) [Example 33D-3], for which the IC50 (rhSYK Activity, Table 33D) is below 100 nM.

With `Cc1cc(Nc2nccc(C(F)(F)F)n2)cc(-c2cnc(C(C)(O)c3ccc(C(=O)O)s3)s2)c1` (single isomer, unassigned) [Example 33D-21], the half-inhibitory concentration (IC50) (rhSYK Activity, Table 33D) is below 100 nM.

As to `Cc1cc(Nc2nccc(C(F)(F)F)n2)cc(-c2cnc(C3(O)CCCN(C(=O)CC(N)=O)CC3)s2)c1` (single isomer, unassigned) [Example 54D-20], the half-maximal inhibitory concentration (IC50) (rhSYK Activity, Table 54D) is below 100 nM.

On to `Cc1cc(Nc2nccc(C(F)(F)F)n2)cc(-c2cnc(C3(O)CCCN(C(=O)CC(=O)O)CC3)s2)c1` (single isomer, unassigned) [Example 54D-25], for which the IC50 (rhSYK Activity, Table 54D) was below 100 nM.

For `Cc1cc(Nc2nccc(C(F)(F)F)n2)cc(-c2cnc(C3(O)CCCN(C(=O)C(O)CO)CC3)s2)c1` (single isomer, unassigned) [Example 54D-28], the half-maximal inhibitory concentration (IC50) (rhSYK Activity, Table 54D) was below 100 nM.

With `Cc1cc(Nc2nccc(C(F)(F)F)n2)cc(-c2cnc(C3(O)CCCN(C(=O)c4cnn[nH]4)CC3)s2)c1` (single isomer, unassigned) [Example 54D-36], where the note is “rhSYK Activity, Table 54D”, the IC50 was below 100 nM.

On to `Cc1cc(Nc2nccc(C(F)(F)F)n2)cc(-c2cnc(C3(O)CCCN(C(=O)c4cnon4)CC3)s2)c1` (single isomer, unassigned) [Example 54D-38], for which the half-inhibitory concentration (IC50) (rhSYK Activity, Table 54D) is below 100 nM.

As for `Cc1cc(Nc2nccc(C(F)(F)F)n2)cc(-c2cnc(C3(O)CCCN(C(=O)CCC(N)=O)CC3)s2)c1` (single isomer, unassigned) [Example 54D-41], the IC50 (rhSYK Activity, Table 54D) is below 100 nM.

Regarding `Cc1cc(Nc2nccc(C(F)(F)F)n2)cc(-c2cnc(C3(O)CCCN(C(=O)c4cnnn4C)CC3)s2)c1` (single isomer, unassigned) [Example 54D-50], where the note is “rhSYK Activity, Table 54D”, the IC50 is below 100 nM.

On to `Cc1cc(Nc2nccc(C(F)(F)F)n2)cc(-c2cnc(C3(O)CCCN(C(=O)Cn4ccnn4)CC3)s2)c1` (single isomer, unassigned) [Example 54D-52], for which the IC50 (rhSYK Activity, Table 54D) is below 100 nM.

Turning to `Cc1cc(Nc2nccc(C(F)(F)F)n2)cc(-c2cnc(C3(O)CCCN(C(=O)c4nnnn4C)CC3)s2)c1` (single isomer, unassigned) [Example 54D-57], the IC50 (rhSYK Activity, Table 54D) is below 100 nM.

For `Cc1cc(Nc2nccc(C(F)(F)F)n2)cc(-c2cnc(C3(O)CCCN(C(=O)Cc4nnn[nH]4)CC3)s2)c1` (single isomer, unassigned) [Example 54D-59], for the setting “rhSYK Activity, Table 54D”, the concentration for half-maximal inhibition (IC50) is below 100 nM.

With `CCOC(=O)CC(=O)N1CCCC(O)(c2ncc(-c3cc(C)cc(Nc4nccc(C(F)(F)F)n4)c3)s2)CC1` (single isomer, unassigned) [Example 54D-75], where the note is “rhSYK Activity, Table 54D”, the IC50 is below 100 nM.

With `Cc1cc(Nc2nccc(C(F)(F)F)n2)cc(-c2cnc(C3(O)CCCN(C(=O)C(C)(CO)CO)CC3)s2)c1` (single isomer, unassigned) [Example 54D-79], the IC50 (rhSYK Activity, Table 54D) was below 100 nM.

As for `Cc1cc(Nc2nccc(C(F)(F)F)n2)cc(-c2cnc(C3(O)CCCN(C(=O)c4[nH]nnc4Cl)CC3)s2)c1` (single isomer, unassigned) [Example 54D-100], where the note is “rhSYK Activity, Table 54D”, the IC50 is below 100 nM.

Consider `Cc1cc(Nc2nccc(C(F)(F)F)n2)cc(-c2cnc(C3(O)CCCN(C(=O)c4nn[nH]c4C(F)(F)F)CC3)s2)c1` (single isomer, unassigned) [Example 54D-107], for which the concentration for half-maximal inhibition (IC50) (rhSYK Activity, Table 54D) is below 100 nM.

Turning to `Cc1cc(Nc2nccc(C(F)(F)F)n2)cc(-c2cnc(C3(O)CCCN(C(=O)c4n[nH]c(C(F)(F)F)n4)CC3)s2)c1` (single isomer, unassigned) [Example 54D-109], the IC50 (rhSYK Activity, Table 54D) is below 100 nM.

On to `Cc1cc(Nc2nccc(C(F)(F)F)n2)cc(-c2cnc(C3(O)CCCN(S(N)(=O)=O)CC3)s2)c1` (single isomer, unassigned) [Example 54D-116], for which the IC50 (rhSYK Activity, Table 54D) was below 100 nM.

Turning to `Cc1cc(Nc2nccc(C(F)(F)F)n2)cc(-c2cnc(C3(O)CCCN(C(N)=O)CC3)s2)c1` (single isomer, unassigned) [Example 54D-119], the IC50 (rhSYK Activity, Table 54D) was below 100 nM.

Regarding `Cc1cc(Nc2nccc(C(F)(F)F)n2)cc(-c2cnc(C3(O)CCCN(C(=O)CO)CC3)s2)c1` (single isomer, unassigned) [Example 54D-122], the IC50 (rhSYK Activity, Table 54D) was below 100 nM.

`Cc1cc(Nc2nccc(C(F)(F)F)n2)cc(-c2cnc(C3(O)CCCN(C(=O)c4nc[nH]n4)CC3)s2)c1` (single isomer, unassigned) [Example 54D-124]: the IC50 (rhSYK Activity, Table 54D) was below 100 nM.

As for `Cc1cc(Nc2nccc(C(F)(F)F)n2)cc(-c2cnc(CNC(CO)C(C)O)s2)c1` (single isomer, unassigned) [Example 88A-43], the concentration for half-maximal inhibition (IC50) under setting [1] was below 100 nM.

Consider `Cc1cc(Nc2nccc(C(C)O)n2)cc(-c2cnc(C3(O)CCC(C(=O)O)C(C)(C)C3)s2)c1` (single isomer, unassigned) [Example 100A-14], for which, under setting [1], the IC50 was below 100 nM.

In the case of `Cc1cc(Nc2nccc(C(O)C3CC3)n2)cc(-c2cnc(C3(O)CCC(C(=O)O)C(C)(C)C3)s2)c1` (single isomer, unassigned) [Example 100A-18], the IC50 under setting [1] is below 100 nM.

The values are drawn from patent US8551984B2, “Aminopyrimidines as SYK inhibitors” (Merck Sharp & Dohme Corp., priority 2009, dated 2013).
